Results taken from EP2769723A1, “Compounds for use in inhibiting HIV capsid assembly” (priority 2013, dated 2014).
Where two headings read alike, the source gives them in different places.

Assays:
wild type NL4.3 HIV-1 = test: Tissue culture infectivity test, TZM titration of supernatants from infected TZM cells; assay type: cell-based; settings: Human immunodeficiency virus 1, TZM
Protocol: Hits selected in the YFP-screen were further evaluated in the tissue culture experiments with cells infected with the wild type NL4.3 HIV-1. The virus for infection was obtained from co-culture of MT4 cells. The MT4 cells co-culture was synchronized for one week and then used for the infection of fresh MT 4 cells. 48 hrs post-infection was the culture supernatant harvested, cleared by the filtration through […] filter and stored in -80 °C in 1 ml aliquots. Amount of virus was quantified by enzyme-linked immuno sorbent assay (ELISA) with antibodies against HIV-1 CA (3 ng of CA/ml) and blue cell assay (1x10^5 IU/ml), which gives 3 x 10^4 IU/ng of CA.
For compounds testing the TZM cells were seeded on 96-well plate in the density 5 x 10^3 cells per well. The culture media was aspirated approx. 16 hrs later and cells were infected by the wild type NLA.3 HIV-1 by addition of 50J..il of prepared virus stock diluted with 50 µl of complete DMEM. The compounds were added twice to ensure that there are not any preassembled viruses present at the time of their addition. Compounds were first added 8 hrs post-infection and then 24 hrs later. In both cases the old culture media were replaced by 100 µl of fresh complete DMEM prior to the compounds addition. Different compounds concentrations were tested, but the DMSO concentration never exceeded 1 % DMSO. As controls were used cells treated only with 1 % DMSO and cells treated with 0,1 µM Lopinavir (HIV-1 protease inhibitor). Supernatant was harvested 24 hrs after the second compound addition, i.e. 56 hrs post-infection. Harvested supernatants were immediately titrated on the fresh TZM cells in aim to perform the infectivity assay (TZM titration), or inactivated by addition of Triton X-100 to the final concentration 0.025 % for further ELISA analysis.
TZM titration was performed on the cells seeded day before on 96-well plate in the density 5 x 10^3 cells per well. The analysis was performed for each compound concentration at three different dilutions and in duplicates. The culture media was aspired and cells were lysed 48 hrs post-infection by addition of 100 µl of SteadyGlo luciferase substrate (Promega) diluted 1 : 1 by complete DMEM. The luminescence signal was measured on Luminoskan Ascent (Thermo Labsystems) after the transfer of 80 µl of lysate to the flat bottom white polystyrene assay plates (Costar).

TZM cells = test: in vitro; assay type: cell-based; settings: Table 4; non-cytotoxic when values higher than 80 % of 1 % DMSO treated cells
Protocol: Cytotoxicity of selected hits tested in the assay with NL4.3 infected cells was determined by MTT test. TZM cells were seeded on the previous day on 96-well plate in the density 5 x 10^3 cells per well. The tested compounds were added in different concentrations, but the DMSO concentration never exceeded 1 % DMSO. As controls were used cells treated only with 1 % DMSO (non-toxic concentration) and cells treated with 5 % DMSO (toxic concentration). 20 µl of the CellTiter 96 Aqueous One substrate (Promega) was added to the 100 µl of culture media 48 hrs after the compounds addition and the color development was quantified 4 hrs later by measuring the absorbance at 490 nm on Saphire reader. Compounds were consider non-cytotoxic (at given concentrations) when the measured values were higher than 80 % of the value of 1 % DMSO treated cells.

[1] = read-out: tissue culture IC50 (µM)
[2] = Table 4, cells infected with wild type NL4.3 HIV-1, read-out: tissue culture IC50

| SMILES | IC50 (wild type NL4.3 HIV-1; [1]) [µM] | toxicity LC50 (µM) (TZM cells) | IC50 (wild type NL4.3 HIV-1; [2]) [µM] |
| --- | --- | --- | --- |
| CCN(CC)c1nc(-c2cccnc2)nc2ccccc12 [KP-237] | > 10 | non-toxic |  |
| O=[N+]([O-])c1ccc(Nc2ccnc(-c3cccnc3)n2)c(F)c1 [KP-34] | > 25 | non-toxic |  |
| CNc1ccc(F)cc1Nc1nc(-c2cccnc2)nc2ccccc12 [AMR-560] | ~12 | non-toxic |  |
| NNC(=O)c1ccc(Nc2nc(-c3cccnc3)nc3ccccc23)cc1 [KP-242] | > 10 | non-toxic |  |
| Fc1c(F)c(F)c(Nc2nc(-c3cccnc3)nc3ccccc23)c(F)c1F [KP-107] | ~7 | non-toxic |  |
| O=S(=O)(c1ccc(Nc2nc(-c3cccnc3)nc3ccccc23)cc1)c1nccs1 [KP-270] | > 10 | non-toxic |  |
| Fc1cc(Nc2nc(-c3cncc(Br)c3)nc3ccccc23)cc(F)c1F [KP-158 (old)] | 0.5 to 1 | non-toxic |  |
| CCOc1nc(-c2cccnc2)nc2ccccc12 [OSR-236] |  | non-toxic | 10 to 15 |
| CCOC(=O)c1sc2nc(-c3cccnc3)nc(Nc3cc(F)c(F)c(F)c3)c2c1C [KP-199] | > 10 | non-toxic |  |
| c1cncc(-c2nc(N3CCOCC3)c3ccccc3n2)c1 [KP-190] | > 10 | non-toxic |  |
| CN(C)c1nc(-c2cccnc2)nc2ccc(O)cc12 [OSR-242X] |  | non-toxic | 0.5 to 1 |
| FC(F)(F)c1cccc(Nc2nc(-c3cccnc3)nc3ccccc23)c1 [OSR-198] | > 25 | non-toxic |  |
| c1ccc(Sc2nc(-c3cccnc3)nc3ccccc23)cc1 [OSR-290] | > 10 | non-toxic |  |
| Fc1cc(Nc2nc(Nc3cc(F)c(F)c(F)c3)c3ccccc3n2)cc(F)c1F [KP-265] | ~10 | non-toxic |  |
| c1cncc(-c2nc(Nc3ccncn3)c3ccccc3n2)c1 [KP-111] | ~18 | non-toxic |  |
| Cc1c(CO)sc2nc(-c3cccnc3)nc(Nc3cc(F)c(F)c(F)c3)c12 [KP-233] | > 10 | non-toxic |  |
| NC(=O)c1ccc(Nc2nc(-c3ccncc3)nc3ccccc23)cc1 [AMR-556] | > 10 | non-toxic |  |
| CCOP(=O)(OCC)c1cc([N+](=O)[O-])ccc1Nc1nc(-c2cccnc2)nc2ccccc12 [KP-139] | > 25 | non-toxic |  |
| N#Cc1ccc(Nc2nc(-c3ccncc3)nc3ccccc23)cc1 [AMR-549] | > 10 | non-toxic |  |
| CC(C)(C)Oc1nc(-c2cccnc2)nc2ccccc12 [OSR-285] | > 10 | non-toxic |  |
| CCOC(=O)c1ccccc1Nc1nc(-c2ccncc2)nc2ccccc12 [AMR-540] | > 10 | non-toxic |  |
| Fc1cc(Nc2cc(-c3cccnc3)nc3ccccc23)cc(F)c1F [OSR-205] | ~10 | non-toxic |  |
| Fc1cc(Nc2nc(-c3cccnc3)nc3ccccc23)c(F)c(F)c1F [KP-98] | ~15 | non-toxic |  |
| COc1ccc(Nc2nc(Cl)nc3ccccc23)cn1 [KP-288] | > 10 | non-toxic |  |
| Fc1ccc(Nc2nc(-c3cccnc3)nc3ccccc23)cc1Cl [KP-207] | > 10 | non-toxic |  |
| CC(=O)OC[C@H]1O[C@@H](Sc2nc(-c3cccnc3)nc3ccccc23)[C@H](OC(C)=O)[C@@H](OC(C)=O)[C@@H]1OC(C)=O [KP-119] | > 25 | non-toxic |  |
| COCCOc1cc2nc(-c3cccnc3)nc(Nc3ccc(C(=O)O)cc3O)c2cc1OCCOC [OSR-79 free base] | > 25 | non toxic |  |
| COc1ccc(Nc2nc(-c3cccnc3)nc3ccccc23)cn1 [KP-283] | > 10 | non-toxic |  |
